Laboratory results: PMC13110267, “Fair and Square: Design, Synthesis and Biological Evaluations of Squaric Acid Derivatives as Novel HDAC8 Inhibitors” (Chemmedchem, 2026)

Legend:
[1] = biological target: T1, HDAC8 (Homo sapiens, UniProt Q9BY41); assay: HDAC8 fluorometric enzyme inhibition assay, purified recombinant enzyme, 10-point dose-response; format: biochemical; conditions: Table 1; purified recombinant HDAC8 10 nM; mean of three independent experiments; >35 µM = weak inhibitor
T1 construct: made in house
T1 sequence (Q9BY41 1-377): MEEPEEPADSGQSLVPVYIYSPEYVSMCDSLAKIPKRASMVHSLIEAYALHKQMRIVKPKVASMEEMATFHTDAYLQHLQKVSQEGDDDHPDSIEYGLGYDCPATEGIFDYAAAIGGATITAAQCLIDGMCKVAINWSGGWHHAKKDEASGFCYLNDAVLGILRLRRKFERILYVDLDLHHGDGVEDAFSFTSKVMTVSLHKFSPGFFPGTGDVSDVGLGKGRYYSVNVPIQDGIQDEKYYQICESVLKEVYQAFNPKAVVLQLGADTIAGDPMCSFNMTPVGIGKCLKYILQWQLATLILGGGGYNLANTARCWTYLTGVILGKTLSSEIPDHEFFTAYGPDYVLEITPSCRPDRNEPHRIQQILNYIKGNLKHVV
Protocol: (§1) Therefore, the first stage of biological evaluation focused on determining inhibitory concentration (IC50) values of the squaric acid derivatives against HDAC8 and HDAC4 using purified recombinant enzymes. Enzymatic inhibition was quantified using 10‐point dose–response assays, from which IC50 values were calculated (Table 1). HDAC8 and HDAC4 were employed at concentrations of 10 nM and 1 nM, respectively, while other zinc‐dependent HDAC isoenzymes were used at approximate concentrations of ∼1 nM, reflecting the purity of the commercially available preparations. […]
(§2) 1.3.1 HDAC Assay General Inform ation
(§3) The activity of HDAC1, HDAC4, HDAC6, HDAC8, and HDAC11 was determined using a fluorometric assay in black half-area 96-well microplates (Greiner Bio -One , Germany). HDAC1 (#50051) and HDAC 6 (#50006) were purchased from BPS Bioscience.
(§4) HDAC4, HDAC8 and HDAC11 were produced in house as previously described.7- 9 The enzymes were pre-incubated with serial dilutions of the compounds for 1 hour at 30 °C in either assay buffer (25 mM Tris-HCl, 75 mM KCl and 0.001% (v/v) Pluronic F -127, pH 8.0) or MAL buffer (137 m M NaCl, 50 mM Tris-HCl, 2.7 mM KCl, 1 mM MgCl₂, 0 .5 mg/ml bovine serum albumin (BSA), pH 8.0b) for HDAC11. The enzyme reaction was initiated by the addition of the following substrates: 20 µM Boc-L ys(T FA) -AMC for HDAC4 and HDAC8; 80 µM Boc-L ys(T FA) -AMC for HDAC11; and 50 µM Boc -Lys(Ac)-AMC for HDAC1 and HDAC6. After an incubation period of 60 minutes, the reaction was terminated by the addition of 1.7 µM 9,9,9-trifluoro-8-oxo-N -phenyl -nonanamide (SATFMK) for […]
(§5) HDAC6, and 1 µM 1,1-dimethyl -2-[5-(trifluoromethyl)pyrazin-2-yl]isoindoline -4-carbohydroxamic acid (FT895) for HDAC11. The deacetylated substrate was then cleaved into fluorescent 7-amino -4- methylcoumarin (AMC) by the addition of 0.42 mg/mL trypsin.
(§6) Measurements were performed using a PHERAstar FS fluorescence microplate reader (BMG LABTECH) with excitation at 360 nm and emission at 460 nm. The normalised enzyme activities were plotted against the respective ligand concentration and fitted with a four-parameter logistic function using GraphPad Prism 6 software.

[2] = biological target: T2, HDAC4 (Homo sapiens, UniProt P56524); assay: HDAC4 fluorometric enzyme inhibition assay, purified recombinant enzyme, 10-point dose-response; format: biochemical; conditions: Table 1; purified recombinant HDAC4 1 nM; mean of three independent experiments; >35 µM = weak inhibitor
T2 construct: made in house
T2 sequence (P56524 whole entry): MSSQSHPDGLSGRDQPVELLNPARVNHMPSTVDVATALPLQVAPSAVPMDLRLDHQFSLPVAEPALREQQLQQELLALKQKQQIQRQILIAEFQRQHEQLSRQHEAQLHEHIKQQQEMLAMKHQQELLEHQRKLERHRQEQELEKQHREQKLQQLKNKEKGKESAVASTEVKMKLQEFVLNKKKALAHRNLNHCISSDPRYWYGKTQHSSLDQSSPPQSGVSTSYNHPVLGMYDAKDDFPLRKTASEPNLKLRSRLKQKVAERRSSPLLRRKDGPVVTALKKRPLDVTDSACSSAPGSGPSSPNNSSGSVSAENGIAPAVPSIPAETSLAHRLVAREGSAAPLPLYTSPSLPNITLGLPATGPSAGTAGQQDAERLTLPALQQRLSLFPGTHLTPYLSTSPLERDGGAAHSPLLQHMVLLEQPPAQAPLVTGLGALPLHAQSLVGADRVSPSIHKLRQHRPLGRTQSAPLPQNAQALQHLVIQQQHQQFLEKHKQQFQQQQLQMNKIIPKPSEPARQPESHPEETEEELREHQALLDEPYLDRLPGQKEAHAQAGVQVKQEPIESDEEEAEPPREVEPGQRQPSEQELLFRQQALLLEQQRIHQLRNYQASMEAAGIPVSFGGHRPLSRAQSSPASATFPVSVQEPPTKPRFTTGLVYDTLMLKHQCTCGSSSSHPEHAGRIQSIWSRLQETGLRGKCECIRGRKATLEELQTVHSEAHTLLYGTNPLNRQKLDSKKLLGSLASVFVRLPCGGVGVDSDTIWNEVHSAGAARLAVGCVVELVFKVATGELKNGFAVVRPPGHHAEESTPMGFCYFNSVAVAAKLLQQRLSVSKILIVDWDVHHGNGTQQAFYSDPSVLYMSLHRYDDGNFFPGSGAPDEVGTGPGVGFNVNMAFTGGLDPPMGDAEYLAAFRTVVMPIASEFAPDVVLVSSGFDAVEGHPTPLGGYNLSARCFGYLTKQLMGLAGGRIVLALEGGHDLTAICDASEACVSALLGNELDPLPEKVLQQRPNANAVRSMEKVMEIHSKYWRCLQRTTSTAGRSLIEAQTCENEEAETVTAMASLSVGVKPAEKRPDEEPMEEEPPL
Protocol: as §1, §2, §3, §4, §5, §6

IC50 [1] | IC50 [2] | Compound
> 35 µM | > 35 µM | CCOc1c(Nc2cccc(O)c2)c(=O)c1=O [9 h]
> 35 µM | > 35 µM | CCOc1c(N(C)Cc2ccc(Br)cc2)c(=O)c1=O [10 h]
> 35 µM | > 35 µM | CCOc1c(N2CCS(=O)(=O)CC2)c(=O)c1=O [12 h]
> 35 µM | > 35 µM | CCOc1c(Nc2ccccc2)c(=O)c1=O [Compound 9a]
> 35 µM | > 35 µM | CCOc1c(Nc2cccc(Cl)c2)c(=O)c1=O [Compound 9c]
> 35 µM | > 35 µM | CCOc1c(Nc2ccc(Cl)cc2)c(=O)c1=O [Compound 9d]
> 35 µM | > 35 µM | CCOc1c(Nc2cccc(Br)c2)c(=O)c1=O [Compound 9e]
> 35 µM | > 35 µM | CCOc1c(Nc2ccc(Br)cc2)c(=O)c1=O [Compound 9f]
> 35 µM | > 35 µM | CCOc1c(Nc2ccccc2O)c(=O)c1=O [Compound 9g]
> 35 µM | > 35 µM | CCOc1c(Nc2ccc(O)cc2)c(=O)c1=O [Compound 9i]
> 35 µM | > 35 µM | CCOc1c(Nc2ccccc2OC)c(=O)c1=O [Compound 9j]
> 35 µM | > 35 µM | CCOc1c(Nc2cccc(OC)c2)c(=O)c1=O [Compound 9k]
> 35 µM | > 35 µM | CCOc1c(Nc2ccc(OC)cc2)c(=O)c1=O [Compound 9l]
> 35 µM | > 35 µM | CCOc1c(Nc2cccc(C(F)(F)F)c2)c(=O)c1=O [Compound 9m]
> 35 µM | > 35 µM | CCOc1c(Nc2ccc(C(F)(F)F)cc2)c(=O)c1=O [Compound 9n]
> 35 µM | > 35 µM | CCOc1c(Nc2ccccc2C)c(=O)c1=O [Compound 9o]
> 35 µM | > 35 µM | CCOc1c(Nc2cccc(C)c2)c(=O)c1=O [Compound 9p]
> 35 µM | > 35 µM | CCOc1c(Nc2ccc(C)cc2)c(=O)c1=O [Compound 9q]

IC50 [1] | IC50 [2] | Compound
> 35 µM | > 35 µM | CCOc1c(Nc2cccc(C(=O)O)c2)c(=O)c1=O [Compound 9r]
> 35 µM | > 35 µM | CCOc1c(N(C)c2ccc(Br)cc2)c(=O)c1=O [Compound 9s]
> 35 µM | > 35 µM | CCOc1c(NCc2ccccc2)c(=O)c1=O [Compound 10a]
> 35 µM | > 35 µM | CCOc1c(NCc2ccccc2Cl)c(=O)c1=O [Compound 10b]
> 35 µM | > 35 µM | CCOc1c(NCc2cccc(Cl)c2)c(=O)c1=O [Compound 10c]
> 35 µM | > 35 µM | CCOc1c(NCc2ccc(Cl)cc2)c(=O)c1=O [Compound 10d]
> 35 µM | > 35 µM | CCOc1c(NCc2ccccc2Br)c(=O)c1=O [Compound 10e]
> 35 µM | > 35 µM | CCOc1c(NCc2cccc(Br)c2)c(=O)c1=O [Compound 10f]
> 35 µM | > 35 µM | CCOc1c(NCc2ccc(Br)cc2)c(=O)c1=O [Compound 10g]
> 35 µM | > 35 µM | CCOc1c(N(C(C)C)C(C)C)c(=O)c1=O [Compound 11]
> 35 µM | > 35 µM | CCOc1c(N2CCC2)c(=O)c1=O [Compound 12a]
> 35 µM | > 35 µM | CCOc1c(N2CCCC2)c(=O)c1=O [Compound 12b]
> 35 µM | > 35 µM | CCOc1c(N2CCCCC2)c(=O)c1=O [Compound 12c]
> 35 µM | > 35 µM | CCOc1c(N2CCCCCC2)c(=O)c1=O [Compound 12d]
> 35 µM | > 35 µM | CCOc1c(N2CCOCC2)c(=O)c1=O [Compound 12e]
> 35 µM | > 35 µM | CCOc1c(N2C[C@@H](C)O[C@@H](C)C2)c(=O)c1=O [Compound 12f]
> 35 µM | > 35 µM | CCOc1c(N2CCSCC2)c(=O)c1=O [Compound 12g]
> 35 µM | > 35 µM | CCOc1c(N2CCSC2)c(=O)c1=O [Compound 12i]
